Measurements: article PMC7594079, “Insights into the Function and Evolution of Taste 1 Receptor Gene Family in the Carnivore Fish Gilthead Seabream (Sparus aurata)” (International Journal of Molecular Sciences, 2020)

Target: T1, saT1R1/R3 (Sparus aurata, UniProt A0A671TNH8+A0A671VZB3)
T1 sequence (A0A671TNH8 23-847): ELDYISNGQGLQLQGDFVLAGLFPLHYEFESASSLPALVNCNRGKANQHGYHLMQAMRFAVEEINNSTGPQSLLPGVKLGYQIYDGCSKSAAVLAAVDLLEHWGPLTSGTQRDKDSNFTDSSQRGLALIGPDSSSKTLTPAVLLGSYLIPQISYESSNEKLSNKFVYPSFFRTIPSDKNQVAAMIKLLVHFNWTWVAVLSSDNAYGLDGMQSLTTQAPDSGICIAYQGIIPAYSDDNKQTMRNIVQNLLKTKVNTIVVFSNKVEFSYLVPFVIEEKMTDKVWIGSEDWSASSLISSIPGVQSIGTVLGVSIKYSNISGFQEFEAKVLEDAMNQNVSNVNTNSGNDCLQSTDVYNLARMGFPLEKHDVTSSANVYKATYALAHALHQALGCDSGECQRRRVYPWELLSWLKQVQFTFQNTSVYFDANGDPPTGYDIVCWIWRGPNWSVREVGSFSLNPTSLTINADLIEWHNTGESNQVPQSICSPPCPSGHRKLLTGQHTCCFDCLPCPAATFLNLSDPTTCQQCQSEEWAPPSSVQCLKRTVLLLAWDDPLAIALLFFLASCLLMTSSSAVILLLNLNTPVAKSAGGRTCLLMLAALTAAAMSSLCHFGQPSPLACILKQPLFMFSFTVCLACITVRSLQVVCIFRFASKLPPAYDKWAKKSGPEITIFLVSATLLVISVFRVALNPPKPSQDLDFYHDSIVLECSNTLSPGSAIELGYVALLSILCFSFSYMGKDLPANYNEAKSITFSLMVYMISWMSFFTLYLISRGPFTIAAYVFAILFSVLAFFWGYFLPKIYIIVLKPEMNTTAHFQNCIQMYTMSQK
T1 sequence (A0A671VZB3 24-860): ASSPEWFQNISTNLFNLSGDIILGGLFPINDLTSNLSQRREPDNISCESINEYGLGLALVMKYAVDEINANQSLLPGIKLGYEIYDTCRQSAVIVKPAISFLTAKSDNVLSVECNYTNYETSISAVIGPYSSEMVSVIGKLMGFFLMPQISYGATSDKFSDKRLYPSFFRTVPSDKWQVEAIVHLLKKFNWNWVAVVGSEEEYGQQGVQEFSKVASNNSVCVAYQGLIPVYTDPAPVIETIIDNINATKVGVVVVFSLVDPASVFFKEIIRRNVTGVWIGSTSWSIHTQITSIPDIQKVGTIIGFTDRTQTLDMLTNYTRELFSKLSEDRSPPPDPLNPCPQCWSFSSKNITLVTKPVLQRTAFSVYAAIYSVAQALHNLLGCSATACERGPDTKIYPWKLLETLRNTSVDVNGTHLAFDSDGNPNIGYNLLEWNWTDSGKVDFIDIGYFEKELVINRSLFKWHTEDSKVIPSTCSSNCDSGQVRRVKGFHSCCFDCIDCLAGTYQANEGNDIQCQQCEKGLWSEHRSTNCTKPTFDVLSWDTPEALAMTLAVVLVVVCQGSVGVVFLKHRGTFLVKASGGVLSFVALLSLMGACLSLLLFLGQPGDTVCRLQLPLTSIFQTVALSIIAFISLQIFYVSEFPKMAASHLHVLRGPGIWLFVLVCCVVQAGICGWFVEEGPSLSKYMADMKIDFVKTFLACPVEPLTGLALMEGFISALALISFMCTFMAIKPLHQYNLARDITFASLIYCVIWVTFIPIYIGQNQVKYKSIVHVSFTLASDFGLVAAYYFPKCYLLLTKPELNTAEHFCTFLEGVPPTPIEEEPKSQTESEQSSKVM
Assay: saT1R1/R3 heterodimer transiently transfected in stable pGL3-NFAT-luc-HEK293 (Cl.3) cells, luciferase reporter
Type: cell-based
Conditions: as molarity; decimal comma
From the text: Figure 6 Amino acid Log-dose response curves of activation in heterologous co-transfected (Cl.3) cells with saT1R1/3 (green dots), saT1R2a/3 (red squares) and saT1R2b/3 (black triangles) heterodimers. Evaluation of L-AA responses was based on the RLU mean ± SEM of four independent determinations normalized to the mean response of the same transfections stimulated with reduced assay medium (Basal Medium Eagle w/o L-glutamate (BME) + 1% FBS), and expressed as the percentage relative to basal levels (BL).
HEK293 cells were cultured in standard medium DMEM (Gibco, Thermo Fisher, Saint Louis, MO, USA) containing 10% FBS, penicillin (100 U/mL) and streptomycin ([…]) at 37 °C, with a humidified atmosphere at 5% CO2. pGL3-NFAT-luc-HEK293 stable clones were generated by co-transfections of pGL3-NFAT-luc and tgCMV/HyTK plasmids (50:1), the latter harboring the hygromycin phosphotransferase gene, using Lipofectamine LTX according to supplier’s protocols (Thermo Fisher, Saint Louis, MO, USA). Initially, HEK293 cells were selected using DMEM containing 400 μg/mL hygromycin B (Sigma, Darmstadt, Germany) in 24-well plates for two weeks; 24 colonies were further grown out in 96-well plates under reduced hygromycin selection (200 µg/mL) for three weeks. Potentially resistant NFAT-luc-HEK293 clones (n = 22) were validated after incubation in assay medium (DMEM + 1% FBS) containing PMA or Ionomycin (Sigma, Darmstadt, Germany) for 18 h (triplicates, 50,000 cells/well). Luciferase activity was quantified with ONE-Glo™ EX Reagent Kit (Promega, Madison, WI, USA) using a 96-microplate TECAN reader (Trading AG, Switzerland).
saT1Rs (saT1R1, saT1R2a, saT1R2b saT1R3) and saGαi1-2 genes were RT-PCR amplified using 5’ and 3’ flanking primers carrying HindIII and XhoI restriction sites, respectively. Gel-purified fragments were cloned into pGEM-T Easy vectors, re-sequenced, digested and subcloned into pcDNA™3 (Invitrogen, Carlsbad, CA, USA). Effective saT1R cloning into pcDNA™3 was further verified by HindIII/XhoI digestion. Transient co-transfections were done in 6-well plates (confluence ~70–80%) using 100 μL of reduced serum medium (Opti-MEM, Gibco, Thermo Fisher, Saint Louis, MO, USA) containing 150 ng of each selected pcDNA™3 construct, 1:10 charge ratio of Enhanced Green Fluorescent expressing construct (EGFP; positive control), and pBluescript II SK (+) vector DNA (Addgene, Watertown, MA, USA) up to 1 µg of totally transfected DNA. Following 24 h incubation, cells were washed with fresh standard medium and plated in polylysine treated plates for additional 24 h. Cells were then stimulated with L-AAs and sugar compounds for 18 h in a reduced assay medium (BME w/o L-glutamate; Gibco, Thermo Fisher, Saint Louis, MO, USA) + 1% FBS), to prevent unspecific Ca^2+/NFAT signaling activation and potential saT1R desensitization. All L-AAs and sugars used for in vitro experiments were obtained from Merck KGaA (Darmstadt, Germany).

With C[C@@H](O)[C@H](N)C(=O)O [Thr, Threonine] as the compound, how does the “T1R1/R3 [MSD] maximum stimulation dose” value read?
Its value is 1,00 × 10^-1 M.

Which “T1R1/R3 [MSD] maximum stimulation dose” value does the source give for NC(=O)C[C@H](N)C(=O)O [Asn, Asparagine] here?
Its value is 1,00 × 10^-1 M.

With N[C@@H](CO)C(=O)O [Ser, Serine] as the compound, how does the “T1R1/R3 [MSD] maximum stimulation dose” value read?
Its value is 1,00 × 10^-1 M.

How did the “T1R1/R3 [MSD] maximum stimulation dose” value turn out when CC[C@H](C)[C@H](N)C(=O)O [Ile, Isoleucine] was run?
The value was 1,00 × 10^-1 M.

For N=C(N)NCCC[C@H](N)C(=O)O [Arg, Arginine], which “T1R1/R3 [MSD] maximum stimulation dose” value is on record?
The value was 1,00 × 10^-5 M.

For NC(=O)CC[C@H](N)C(=O)O [Gln, Glutamine], which “T1R1/R3 [MSD] maximum stimulation dose” value is on record?
Its value is 1,00 × 10^-1 M.

O=C(O)[C@@H]1CCCN1 [Pro, Proline] was tested. Which “T1R1/R3 [MSD] maximum stimulation dose” value did it give?
The value was 1,00 × 10^-1 M.

For N[C@@H](Cc1ccc(O)cc1)C(=O)O [Tyr, Tyrosine], which “T1R1/R3 [MSD] maximum stimulation dose” value is on record?
Its value is 1,00 × 10^-3 M.

Which “T1R1/R3 [MSD] maximum stimulation dose” value does the source give for CC(C)[C@H](N)C(=O)O [Val, Valine] here?
Its value is 1,00 × 10^-1 M.

How did the “T1R1/R3 [MSD] maximum stimulation dose” value turn out when CC(C)C[C@H](N)C(=O)O [Leu, Leucine] was run?
Its value is 1,00 × 10^-1 M.

CSCC[C@H](N)C(=O)O [Met, Methionine] was tested. Which “T1R1/R3 [MSD] maximum stimulation dose” value did it give?
Its value is 1,00 × 10^-1 M.

For N[C@@H](CC(=O)O)C(=O)O [Asp, Aspartic acid], which “T1R1/R3 [MSD] maximum stimulation dose” value is on record?
Its value is 1,00 × 10^-5 M.

With NCC(=O)O [Gly, Glycine] as the compound, how does the “T1R1/R3 [MSD] maximum stimulation dose” value read?
The value was 1,00 × 10^-1 M.

For N[C@@H](Cc1c[nH]cn1)C(=O)O [His, Histidine], which “T1R1/R3 [MSD] maximum stimulation dose” value is on record?
Its value is 1,00 × 10^-5 M.

With N[C@@H](CCC(=O)O)C(=O)O [Glu, Glutamic acid] as the compound, how does the “T1R1/R3 [MSD] maximum stimulation dose” value read?
Its value is 1,00 × 10^-2 M.

N[C@@H](CS)C(=O)O [Cys, Cysteine] was tested. Which “T1R1/R3 [MSD] maximum stimulation dose” value did it give?
Its value is 1,00 × 10^-4 M.

How did the “T1R1/R3 [MSD] maximum stimulation dose” value turn out when C[C@H](N)C(=O)O [Ala, Alanine] was run?
Its value is 1,00 × 10^-1 M.

Which “T1R1/R3 [MSD] maximum stimulation dose” value does the source give for NCCCC[C@H](N)C(=O)O [Lys, Lysine] here?
The value was 1,00 × 10^-3 M.

With N[C@@H](Cc1c[nH]c2ccccc12)C(=O)O [Trp, Tryptophan] as the compound, how does the “T1R1/R3 [MSD] maximum stimulation dose” value read?
Its value is 1,00 × 10^-3 M.

Which “T1R1/R3 [MSD] maximum stimulation dose” value does the source give for N[C@@H](Cc1ccccc1)C(=O)O [Phe, Phenylalanine] here?
The value was 1,00 × 10^-2 M.
